Where “and” joins values, the source holds several entries; their conditions need not be identical. Equal entries are not always repeated. Toxic doses and inconclusive results are not listed. Rule for the calls: active = survival T/C of 150% or more; inactive = T/C below 125% in these data.
Test system: P388 leukemia ip, CD2F1 mice, survival T/C
Assay: NCI In Vivo Anticancer Drug Screen. Data for tumor model P388 Leukemia (intraperitoneal) in CD2F1 (CDF1) mice
Conditions: endpoint: median survival time, higher = longer survival
Method in brief: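 Mice carrying the transplanted tumor received test compound or vehicle. Survival was recorded in each group, and the value is the treated-group measurement divided by that of the vehicle-treated control group.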

[1] = dose: 25.0 mg/kg/injection, schedule: Q01DX009 (ip), vehicle: saline with Tween-80
[2] = dose: 50.0 mg/kg/injection, schedule: Q01DX009 (ip), vehicle: saline with Tween-80
[3] = dose: 100.0 mg/kg/injection, schedule: Q01DX009 (ip), vehicle: saline with Tween-80
[4] = dose: 200.0 mg/kg/injection, schedule: Q01DX009 (ip), vehicle: saline with Tween-80
[5] = dose: 50.0 mg/kg/injection, schedule: Q01DX009 (ip), vehicle: Klucel (hydroxypropylcellulose) (HPC)
[6] = dose: 100.0 mg/kg/injection, schedule: Q01DX009 (ip), vehicle: Klucel (hydroxypropylcellulose) (HPC)
[7] = dose: 12.5 mg/kg/injection, schedule: Q01DX009 (ip), vehicle: saline with Tween-80
[8] = dose: 25.0 mg/kg/injection, schedule: Q01DX005 (ip), vehicle: Klucel (hydroxypropylcellulose) (HPC)
[9] = dose: 50.0 mg/kg/injection, schedule: Q01DX005 (ip), vehicle: Klucel (hydroxypropylcellulose) (HPC)
[10] = dose: 100.0 mg/kg/injection, schedule: Q01DX005 (ip), vehicle: Klucel (hydroxypropylcellulose) (HPC)
[11] = dose: 200.0 mg/kg/injection, schedule: Q01DX005 (ip), vehicle: Klucel (hydroxypropylcellulose) (HPC)
[12] = dose: 400.0 mg/kg/injection, schedule: Q01DX005 (ip), vehicle: Klucel (hydroxypropylcellulose) (HPC)
[13] = dose: 50.0 mg/kg/injection, schedule: Q01DX005 (ip), vehicle: saline with Tween-80
[14] = dose: 100.0 mg/kg/injection, schedule: Q01DX005 (ip), vehicle: saline with Tween-80
[15] = dose: 200.0 mg/kg/injection, schedule: Q01DX005 (ip), vehicle: saline with Tween-80
[16] = dose: 6.25 mg/kg/injection, schedule: Q01DX009 (ip), vehicle: saline with Tween-80
[17] = dose: 12.5 mg/kg/injection, schedule: Q01DX009 (ip), vehicle: Klucel (hydroxypropylcellulose) (HPC)
[18] = dose: 25.0 mg/kg/injection, schedule: Q01DX009 (ip), vehicle: Klucel (hydroxypropylcellulose) (HPC)
[19] = dose: 12.5 mg/kg/injection, schedule: Q01DX005 (ip), vehicle: saline with Tween-80
[20] = dose: 25.0 mg/kg/injection, schedule: Q01DX005 (ip), vehicle: saline with Tween-80
[21] = dose: 50.0 mg/kg/injection, schedule: Q01DX009 (ip), vehicle: saline
[22] = dose: 100.0 mg/kg/injection, schedule: Q01DX009 (ip), vehicle: saline
[23] = dose: 200.0 mg/kg/injection, schedule: Q01DX009 (ip), vehicle: saline
[24] = dose: 25.0 mg/kg/injection, schedule: Q01DX009 (ip), vehicle: saline
[25] = dose: 25.0 mg/kg/injection, schedule: Q04DX003 (ip), vehicle: saline
[26] = dose: 50.0 mg/kg/injection, schedule: Q04DX003 (ip), vehicle: saline
[27] = dose: 100.0 mg/kg/injection, schedule: Q04DX002 (ip), vehicle: Klucel (hydroxypropylcellulose) (HPC)
[28] = dose: 200.0 mg/kg/injection, schedule: Q04DX002 (ip), vehicle: Klucel (hydroxypropylcellulose) (HPC)
[29] = dose: 400.0 mg/kg/injection, schedule: Q04DX002 (ip), vehicle: Klucel (hydroxypropylcellulose) (HPC)

Measured: T/C

CCOC(=O)c1ccccc1NC(=O)c1ccccc1
inactive: [1] 93 % of control | [2] 94 % of control | [3] 103 % of control | [4] 111 % of control

Cc1ccc(C2N3CCCN2CC3)cc1 (stereo unspecified)
inactive: [2] 104 % of control | [3] 102 % of control | [4] 109 % of control

Cc1ccc2c(c1)sc1nnc(Cl)n12
inactive: [5] 100 % of control | [6] 94 % of control | dose: 200.0 mg/kg/injection, schedule: Q01DX009 (ip), vehicle: Klucel (hydroxypropylcellulose) (HPC) 88 % of control

Nc1cc(Cl)c(Cl)cc1Cl
inactive: [7] 100 % of control | [1] 95 % of control | [2] 90 % of control

CC(=O)OCCCCCCCCCCCCCCCCCC1=C(C)C(=O)OC1=O
inactive: [8] 96 % of control | [9] 97 % of control | [10] 103 % of control | [11] 99 % of control | [12] 92 % of control

CCn1c2ccccc2c2cc(N=Nc3ccc(N)nc3N)ccc21
inactive: [13] 94 % of control | [14] 94 % of control | [15] 96 % of control

CCOC(=O)/C(C#N)=C\c1ccc(OCc2ccccc2)c(OCc2ccccc2)c1
inactive: dose: 12.5 mg/kg/injection, schedule: Q01DX005 (ip), vehicle: distilled water + alcohol 93 % of control | dose: 25.0 mg/kg/injection, schedule: Q01DX005 (ip), vehicle: distilled water + alcohol 87 % of control | dose: 50.0 mg/kg/injection, schedule: Q01DX005 (ip), vehicle: distilled water + alcohol 88 % of control | [10] 89 % of control | [11] 91 % of control

S=c1[nH]c2cc(Cl)ccc2o1
inactive: [16] 108 % of control | [7] 96 % of control | [1] 117 % of control | [2] 105 % of control

C=C1C(=O)OC2CC3(C)CCCC(C)C3=CC12 (stereo unspecified)
inactive: [17] 100 % of control | [18] 96 % of control | [5] 101 % of control | [6] 100 % of control

Nc1ccc(N=Nc2ccncc2)c2ccccc12
inactive: [13] 100 % of control | [14] 100 % of control

CCCCC(CC)CN1CN2CN(CC(CC)CCCC)CC2(C)C1 (stereo unspecified)
inactive: [19] 100 % of control | [20] 105 % of control | [13] 104 % of control and 105 % of control

CC(C)COC1CCc2ncccc2O1 (stereo unspecified)
inactive: [21] 104 % of control | [22] 104 % of control | [23] 103 % of control

COSc1ccccc1
inactive: dose: 100.0 mg/kg/injection, schedule: Q01DX001 (ip), vehicle: Klucel (hydroxypropylcellulose) (HPC) 96 % of control | dose: 200.0 mg/kg/injection, schedule: Q01DX001 (ip), vehicle: Klucel (hydroxypropylcellulose) (HPC) 90 % of control | dose: 400.0 mg/kg/injection, schedule: Q01DX001 (ip), vehicle: Klucel (hydroxypropylcellulose) (HPC) 104 % of control

C=C1C(=O)OC2/C=C(\C)C(OC(C)=O)/C=C\C(C)(O)CC(OC(=O)/C(C)=C/C)C12 (stereo unspecified)
inactive: dose: 10.0 mg/kg/injection, schedule: Q01DX009 (ip), vehicle: saline with Tween-80 105 % of control | dose: 20.0 mg/kg/injection, schedule: Q01DX009 (ip), vehicle: saline with Tween-80 99 % of control | dose: 40.0 mg/kg/injection, schedule: Q01DX009 (ip), vehicle: saline with Tween-80 110 % of control | dose: 80.0 mg/kg/injection, schedule: Q01DX009 (ip), vehicle: saline with Tween-80 115 % of control

NC=NC(CCC(=O)O)C(=O)O (stereo unspecified)
inactive: dose: 50.0 mg/kg/injection, schedule: Q01DX005 (ip), vehicle: saline 106 % of control and 92 % of control | dose: 100.0 mg/kg/injection, schedule: Q01DX005 (ip), vehicle: saline 99 % of control

O=C(O)C1C[n+]2ccccc2O1 (stereo unspecified)
inactive: dose: 12.5 mg/kg/injection, schedule: Q01DX009 (ip), vehicle: saline 100 % of control | dose: 12.5 mg/kg/injection, schedule: Q04DX003 (ip), vehicle: saline 91 % of control | [24] 100 % of control | [25] 100 % of control | [21] 109 % of control | [26] 95 % of control

Nc1ccc(-c2csc(-c3ccc(Br)cc3)n2)cc1
inactive: [17] 100 % of control | [18] 91 % of control | [5] 88 % of control

CC/C(=N\NS(=O)(=O)c1ccc(C)cc1)c1cccc(C#N)c1
inactive: [21] 106 % of control | [22] 96 % of control | [23] 99 % of control

COc1ccc(CN(CCc2ccc(O)cc2)C(=O)C(F)(F)F)cc1O
inactive: [16] 99 % of control | [7] 110 % of control | [1] 107 % of control | [2] 100 % of control

COc1ccc(Cl)c2c(N=Nc3ccccc3[N+](=O)[O-])c(O)[nH]c12
inactive: dose: 15.0 mg/kg/injection, schedule: Q01DX005 (ip), vehicle: saline with Tween-80 103 % of control | dose: 30.0 mg/kg/injection, schedule: Q01DX005 (ip), vehicle: saline with Tween-80 99 % of control | dose: 60.0 mg/kg/injection, schedule: Q01DX005 (ip), vehicle: saline with Tween-80 95 % of control | dose: 240.0 mg/kg/injection, schedule: Q01DX005 (ip), vehicle: saline with Tween-80 87 % of control

CCCCNc1nc(C(F)(F)F)nc2nc[nH]c12
inactive: [9] 103 % of control | [10] 94 % of control | [11] 94 % of control

Cc1nc(N)nc(N)c1-c1ccc(N)cc1
inactive: [19] 105 % of control | [20] 103 % of control | [13] 98 % of control and 105 % of control

COC(=O)C1C2CCC1C2 (stereo unspecified)
inactive: dose: 25.0 mg/kg/injection, schedule: Q01DX009 (ip), vehicle: other 97 % of control | dose: 50.0 mg/kg/injection, schedule: Q01DX009 (ip), vehicle: other 110 % of control | dose: 100.0 mg/kg/injection, schedule: Q01DX009 (ip), vehicle: other 105 % of control | dose: 200.0 mg/kg/injection, schedule: Q01DX009 (ip), vehicle: other 107 % of control | dose: 400.0 mg/kg/injection, schedule: Q01DX009 (ip), vehicle: other 110 % of control

COc1cc(OC)c2c(O)c3c(=O)cc(C)oc3c(-c3c4cc(OC)cc(OC)c4c(O)c4c(=O)cc(C)oc34)c2c1
inactive: dose: 12.5 mg/kg/injection, schedule: Q01DX005 (ip), vehicle: Klucel (hydroxypropylcellulose) (HPC) 114 % of control | [8] 100 % of control | [9] 96 % of control | [10] 100 % of control | [11] 90 % of control | [12] 97 % of control

O=C1c2ccccc2C(Cl)(c2ccc(Cl)cc2)c2ccc(Cl)cc21 (stereo unspecified)
inactive: [20] 107 % of control

CN(C)c1ccc(C(=O)C2(Cl)CCCC(C)(C)C2)cc1 (stereo unspecified)
inactive: [27] 102 % of control | [28] 99 % of control | [29] 94 % of control

c1cc(-c2cc3ccc(C4=NCCN4)cc3s2)ccc1C1=NCCN1
inactive: [25] 115 % of control | [26] 115 % of control

Nc1nc(N)c2ncn(-c3ccc(Cl)c(Cl)c3)c2n1
inactive: [13] 101 % of control | [14] 97 % of control | [15] 106 % of control

CCOC(=O)c1ccc2c(c1)CCC2
inactive: dose: 50.0 mg/kg/injection, schedule: Q01DX009 (ip), vehicle: acetone 104 % of control | dose: 100.0 mg/kg/injection, schedule: Q01DX009 (ip), vehicle: acetone 104 % of control

Cc1cc2n(n1)C(c1ccccc1)=C(c1ccccc1)OC2(c1ccccc1)c1ccccc1
inactive: dose: 50.0 mg/kg/injection, schedule: Q04DX002 (ip), vehicle: Klucel (hydroxypropylcellulose) (HPC) 101 % of control | [27] 97 % of control | [28] 97 % of control | [29] 98 % of control

COc1cc2c(cc1OC)C(CN)C2 (stereo unspecified)
inactive: [24] 111 % of control | [21] 109 % of control | [22] 119 % of control

Source: PubChem BioAssay AID330 (DTP/NCI, 2004)
